Measured values from patent publication US20110077237A1, “KINASE INHIBITORS” (VERTEX PHARMACEUTICALS INCORPORATED, priority 2007, published 2011).

target: PKC delta kinase (Homo sapiens, UniProt Q05655); assay: PKC Delta coupled-enzyme kinase assay; type: biochemical; conditions: not given
Method: An assay buffer solution was prepared which consisted of 100 mM HEPES (pH 7.5), 10 mM MgCl2, 25 mM NaCl, 0.1 mM EDTA and 0.01% Brij. […] To 16 μL of this enzyme buffer, in a 384 well plate, was added 1 μL of VRT stock solution in DMSO. The mixture was allowed to equilibrate for 10 mins at 30° C. […] Ki values were calculated from initial rate data by non-linear regression using the Prism software package (Prism 4.0a, Graphpad Software, San Diego, Calif.).

Chain of PKC delta kinase (Q05655 whole entry): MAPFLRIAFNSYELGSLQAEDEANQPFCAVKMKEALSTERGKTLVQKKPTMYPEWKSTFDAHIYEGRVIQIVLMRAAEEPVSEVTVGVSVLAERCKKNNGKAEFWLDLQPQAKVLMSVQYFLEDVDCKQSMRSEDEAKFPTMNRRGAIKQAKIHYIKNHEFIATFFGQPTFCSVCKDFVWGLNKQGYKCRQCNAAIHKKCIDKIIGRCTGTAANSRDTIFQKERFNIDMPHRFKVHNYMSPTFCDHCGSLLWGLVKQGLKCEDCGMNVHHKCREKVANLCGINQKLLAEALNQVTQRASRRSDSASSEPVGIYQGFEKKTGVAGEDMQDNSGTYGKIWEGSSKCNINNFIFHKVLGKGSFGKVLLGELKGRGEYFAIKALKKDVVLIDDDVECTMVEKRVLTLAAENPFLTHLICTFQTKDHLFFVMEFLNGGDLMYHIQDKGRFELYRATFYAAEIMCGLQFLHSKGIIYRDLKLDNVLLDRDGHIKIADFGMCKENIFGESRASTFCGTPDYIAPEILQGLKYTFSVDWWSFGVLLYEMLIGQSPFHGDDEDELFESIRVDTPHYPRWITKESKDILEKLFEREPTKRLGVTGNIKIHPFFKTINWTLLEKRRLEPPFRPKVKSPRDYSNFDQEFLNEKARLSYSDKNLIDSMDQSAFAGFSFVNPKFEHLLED

| Ki | SMILES |
| --- | --- |
| 50 to 500 nM | Nc1ncccc1C(=O)c1cccc(N2CCC(N)CC2)n1 [compound 86] |
| 50 to 500 nM | CC(C)(C)[C@H]1CN(c2cccc(C(=O)c3cccnc3N)n2)CCN1 [compound 225] |
| 50 to 500 nM | CC1(C)CN(c2cccc(C(=O)c3cccnc3N)n2)CCN1 [compound 226] |
| 500 to 2800 nM | CC(C)[C@@H]1CN(c2cccc(C(=O)c3cccnc3N)n2)CCN1 [compound 231] |

same assay, conditions: 46 nM PKC delta, 150 μM ATP, 30° C.; read-out: Ki PKC delta

| Ki | SMILES |
| --- | --- |
| 50 to 500 nM | C[C@H]1CNCCN1c1cccc(C(=O)c2cccnc2N)n1 [compound 228] |
| 50 to 500 nM | CC(C)C[C@H]1CN(c2cccc(C(=O)c3cc(Br)cnc3N)n2)CCN1 [compound 232] |
| 50 to 500 nM | C=Cc1cnc(N)c(C(=O)c2cccc(N3CCN[C@@H](CC(C)C)C3)n2)c1 [compound 233] |
| 50 to 500 nM | CC(C)[C@@H]1CNCCN1c1cccc(C(=O)c2cccnc2N)n1 [compound 237] |
| 500 to 2800 nM | CC(C)C[C@H]1CN(c2cccc(C(=O)c3cc(-c4ccccc4)cnc3N)n2)CCN1 [compound 239] |
| > 2800 nM | Cc1cc(C)c(CC2CN(c3cccc(C(=O)c4cccnc4N)n3)CCN2)c(C)c1 (stereo not shown) [compound 244] |
| 50 to 500 nM | Nc1ncc(Cl)cc1C(=O)c1cccc(N2CCCNCC2)n1 [compound 245] |
| 500 to 2800 nM | Cc1sc(N2CCNC[C@H]2C)nc1C(=O)c1cccnc1N [compound 247] |
| 50 to 500 nM | Nc1ncccc1C(=O)c1cccc(N2CCNC(c3cccnc3)C2)n1 (stereo not shown) [compound 249] |
| 50 to 500 nM | Cc1ccc(N2CCNC(c3ccccc3)C2)nc1C(=O)c1cccnc1N (stereo not shown) [compound 252] |
| 500 to 2800 nM | Cc1sc(N2CCNC(c3ccccc3)C2)nc1C(=O)c1cccnc1N (stereo not shown) [compound 256] |
| 50 to 500 nM | Nc1ncccc1C(=O)c1cccc(N2CCNC(c3ccccc3Cl)C2)n1 (stereo not shown) [compound 258] |
| 50 to 500 nM | Nc1ncc(-c2cccc(O)c2)cc1C(=O)c1cccc(N2CCNC(c3ccccc3)C2)n1 (stereo not shown) [compound 260] |
| 500 to 2800 nM | Nc1ncc(-c2ccccc2)cc1C(=O)c1cccc(N2CCNC(c3ccccc3)C2)n1 (stereo not shown) [compound 262] |
| 50 to 500 nM | Nc1ncc(-c2cccs2)cc1C(=O)c1cccc(N2CCNC(c3ccccc3)C2)n1 (stereo not shown) [compound 263] |
| 500 to 2800 nM | Nc1ncc(-c2ccsc2)cc1C(=O)c1cccc(N2CCNC(c3ccccc3)C2)n1 (stereo not shown) [compound 264] |
| 500 to 2800 nM | Nc1ncc(-c2cc3ccccc3s2)cc1C(=O)c1cccc(N2CCNC(c3ccccc3)C2)n1 (stereo not shown) [compound 265] |
| 500 to 2800 nM | Nc1ncc(-c2csc3ccccc23)cc1C(=O)c1cccc(N2CCNC(c3ccccc3)C2)n1 (stereo not shown) [compound 266] |
| 50 to 500 nM | Nc1ncc(-c2c[nH]c3ccccc23)cc1C(=O)c1cccc(N2CCNC(c3ccccc3)C2)n1 (stereo not shown) [compound 268] |

| Ki | SMILES |
| --- | --- |
| 50 to 500 nM | N#Cc1ccccc1-c1cnc(N)c(C(=O)c2cccc(N3CCNC(c4ccccc4)C3)n2)c1 (stereo not shown) [compound 269] |
| 50 to 500 nM | N#Cc1cccc(-c2cnc(N)c(C(=O)c3cccc(N4CCNC(c5ccccc5)C4)n3)c2)c1 (stereo not shown) [compound 270] |
| 50 to 500 nM | N#Cc1ccc(-c2cnc(N)c(C(=O)c3cccc(N4CCNC(c5ccccc5)C4)n3)c2)cc1 (stereo not shown) [compound 271] |
| 50 to 500 nM | N#CC1(c2cccc(C(=O)c3cccnc3N)n2)CCNCC1 [compound 280] |
| 50 to 500 nM | Nc1ncc(-c2ccc(CO)cc2)cc1C(=O)c1cccc(N2CCNC(c3ccccc3)C2)n1 (stereo not shown) [compound 282] |
| 50 to 500 nM | Nc1ncc(-c2cccc(CO)c2)cc1C(=O)c1cccc(N2CCNC(c3ccccc3)C2)n1 (stereo not shown) [compound 283] |
| 50 to 500 nM | COc1ccccc1-c1cnc(N)c(C(=O)c2cccc(N3CCNC(c4ccccc4)C3)n2)c1 (stereo not shown) [compound 284] |
| 50 to 500 nM | COc1cccc(-c2cnc(N)c(C(=O)c3cccc(N4CCNC(c5ccccc5)C4)n3)c2)c1 (stereo not shown) [compound 286] |
| 500 to 2800 nM | Nc1ncc(-c2ccncc2)cc1C(=O)c1cccc(N2CCNC(c3ccccc3)C2)n1 (stereo not shown) [compound 288] |
| 50 to 500 nM | Nc1ncc(-c2cc[nH]c2)cc1C(=O)c1cccc(N2CCNC(c3ccccc3)C2)n1 (stereo not shown) [compound 289] |
| 50 to 500 nM | Nc1ncc(/C=C/c2ccccc2)cc1C(=O)c1cccc(N2CCNC(c3ccccc3)C2)n1 (stereo not shown) [compound 290] |
| > 2800 nM | CN(C)c1cccc(-c2cccc(C(=O)c3cccnc3N)n2)c1 [compound 293] |
| > 2800 nM | Nc1ncccc1C(=O)c1cccc(-c2c[nH]c3ccccc23)n1 [compound 294] |
| 50 to 500 nM | Nc1ncccc1C(=O)c1cccc(N2CCNC(c3ccc(F)cc3)C2)n1 (stereo not shown) [compound 295] |
| 50 to 500 nM | COc1ccccc1C1CN(c2cccc(C(=O)c3cccnc3N)n2)CCN1 (stereo not shown) [compound 296] |
| 500 to 2800 nM | N#Cc1cnc(N)c(C(=O)c2cccc(N3CCCNCC3)n2)c1 [compound 302] |
| 50 to 500 nM | CC1(N)CCN(c2cccc(C(=O)c3cccnc3N)n2)CC1 [compound 305] |
| 500 to 2800 nM | COc1cccc(C2CN(c3cccc(C(=O)c4cccnc4N)n3)CCN2)c1 (stereo not shown) [compound 309] |

Further lines, the compound ahead of its results:

| SMILES | Ki |
| --- | --- |
| Nc1ncccc1C(=O)c1cccc(N2CCN3CCCC3C2)n1 (single isomer, unassigned) [compound 211] | 50 to 500 nM |
| Nc1ncccc1C(=O)c1cccc(N2CCCN(C(=O)CCC(F)(F)F)CC2)n1 [compound 31] | 500 to 2800 nM |
| Nc1ncccc1C(=O)c1cccc(N2CCCN(C(=O)Cc3ccccc3)CC2)n1 [compound 33] | 50 to 500 nM |
| CC(C)C(=O)N1CCCN(c2cccc(C(=O)c3cccnc3N)n2)CC1 [compound 34] | 500 to 2800 nM |
| Nc1ncccc1C(=O)c1cccc(N2CCCN(C(=O)CC3CC3)CC2)n1 [compound 35] | > 2800 nM |
| CC(C)(C)C(=O)N1CCCN(c2cccc(C(=O)c3cccnc3N)n2)CC1 [compound 37] | 500 to 2800 nM |
| CC(C)(C)CCN1CCCN(c2cccc(C(=O)c3cccnc3N)n2)CC1 [compound 44] | > 2800 nM |
| Cc1ccccc1-c1cnc(N)c(C(=O)c2cccc(N3CCCNCC3)n2)c1 [compound 57] | 500 to 2800 nM |
| Nc1ncc(-c2cccnc2)cc1C(=O)c1cccc(N2CCCNCC2)n1 [compound 58] | 50 to 500 nM |
| Cc1ccc(-c2cnc(N)c(C(=O)c3cccc(N4CCCNCC4)n3)c2)cc1 [compound 59] | 50 to 500 nM |
| Nc1ncc(Br)cc1C(=O)c1ncc(C(=O)NCc2ccccc2)s1 [compound 62] | 50 to 500 nM |
| Nc1ncc(Br)cc1C(=O)c1cccc(N2CCCN(CCO)CC2)n1 [compound 98] | 50 to 500 nM |
| CC(C)N1CCN(c2cccc(C(=O)c3cc(Br)cnc3N)n2)CC1 [compound 100] | 50 to 500 nM |
| Nc1ncccc1C(=O)c1nc(N2CCCNCC2)cs1 [compound 102] | 50 to 500 nM |
| Nc1ncc(Br)cc1C(=O)c1cncc(N2CCCNCC2)n1 [compound 149] | 50 to 500 nM |
| Nc1ncc(Br)cc1C(=O)c1cccc(N2CCCN(C(=O)c3ccccc3C(F)(F)F)CC2)n1 [compound 150] | 50 to 500 nM |
| Nc1ncc(Br)cc1C(=O)c1cccc(N2CCCN(C(=O)c3ccccc3Cl)CC2)n1 [compound 151] | 500 to 2800 nM |
| C=Cc1cnc(N)c(C(=O)c2cccc(N3CCCN(C)CC3)n2)c1 [compound 152] | 50 to 500 nM |
| CCc1cnc(N)c(C(=O)c2cccc(N3CCCN(C)CC3)n2)c1 [compound 153] | 500 to 2800 nM |
| Nc1ncc(C2CC2)cc1C(=O)c1cccc(N2CCCNCC2)n1 [compound 154] | 50 to 500 nM |
| Cc1cnc(N)c(C(=O)c2cccc(N3CCCNCC3)n2)c1 [compound 155, (6-(1,4-diazepan-1-yl)pyridin-2-yl)(2-amino-5-methylpyridin-3-yl)methanone bis(2,2,2-trifluoroacetate)] | 500 to 2800 nM |

| SMILES | Ki |
| --- | --- |
| CN1CCCN(c2cncc(C(=O)c3cc(Br)cnc3N)n2)CC1 [compound 156] | 50 to 500 nM |
| CN1CCCN(c2csc(C(=O)c3cc(Br)cnc3N)n2)CC1 [compound 163] | 50 to 500 nM |
| C=Cc1cnc(N)c(C(=O)c2cncc(N3CCCNCC3)n2)c1 [compound 165] | 50 to 500 nM |
| Nc1ncc(/C=C/c2ccccc2)cc1C(=O)c1cccc(N2CCCNCC2)n1 [compound 167] | 50 to 500 nM |
| Nc1cccc(-c2cnc(N)c(C(=O)c3cccc(N4CCCNCC4)n3)c2)c1 [compound 169] | 50 to 500 nM |
| Nc1ccc(-c2cnc(N)c(C(=O)c3cccc(N4CCCNCC4)n3)c2)cc1 [compound 170] | 50 to 500 nM |
| Nc1ncc(-c2ccc(O)cc2)cc1C(=O)c1cccc(N2CCCNCC2)n1 [compound 171] | 50 to 500 nM |
| Nc1ncc(-c2cccc(O)c2)cc1C(=O)c1cccc(N2CCCNCC2)n1 [compound 172] | 50 to 500 nM |
| COc1cccc(-c2cnc(N)c(C(=O)c3cccc(N4CCCNCC4)n3)c2)c1 [compound 181] | 50 to 500 nM |
| Cc1cccc(-c2cnc(N)c(C(=O)c3cccc(N4CCCNCC4)n3)c2)c1 [compound 182] | 50 to 500 nM |
| Nc1ncc(-c2ccc[nH]2)cc1C(=O)c1cccc(N2CCCNCC2)n1 [compound 183] | 50 to 500 nM |
| COc1ccc(-c2cnc(N)c(C(=O)c3cccc(N4CCCNCC4)n3)c2)cc1 [compound 186] | 50 to 500 nM |
| Nc1ncc(Br)cc1C(=O)c1cccc(N2CCNCC2)n1 [compound 195] | 50 to 500 nM |
| Nc1ncc(-c2cc[nH]c2)cc1C(=O)c1cccc(N2CCCNCC2)n1 [compound 199] | 50 to 500 nM |
| Nc1ncc(-c2csc3ccccc23)cc1C(=O)c1cccc(N2CCCNCC2)n1 [compound 200] | 50 to 500 nM |
| Nc1ncc(-c2ccsc2)cc1C(=O)c1cccc(N2CCCNCC2)n1 [compound 201] | 50 to 500 nM |
| Nc1ncc(-c2ccccc2)cc1C(=O)c1cccc(N2CCNCC2)n1 [compound 206] | 50 to 500 nM |
| C[C@H]1CN(c2cccc(C(=O)c3cccnc3N)n2)[C@@H](C)CN1 [compound 218] | 50 to 500 nM |
| CC(C)C[C@H]1CN(c2cccc(C(=O)c3cccnc3N)n2)CCN1C(=O)CC(F)(F)F [compound 219] | > 2800 nM |
| CC1CN(c2cccc(C(=O)c3cccnc3N)n2)C(C)CN1 (stereo not shown) [compound 222] | 50 to 500 nM |
